# Residues, ends and D or L forms follow the SMILES beside them. *: point of attachment. Cbz = O=C(OCc1ccccc1)*; CHN2 = [N-]=[N+]=C*; Bn = c1ccc(C*)cc1
# What was measured:
# [1] = tested on: Wistar rats with MCA occlusion; assay: Stroke model, 2 h MCA occlusion, i.v. infusion after reperfusion, infarct volume at 7 days; type: in vivo, rat; details: for % Hemisphere Infarct Volume (% ± SEM): 2 h MCA occlusion, day 7, control 37 ± 2.6
# Description: Male Wistar rat weighing between 270-290 gm are fasted the night prior to surgery. Each rat was then anesthetized with 3.5% halothane, and spontaneously respired with 0.5% halothane in a 2:1 N2O:O2 mixture using a face mask. A normal range of blood gases and pH is maintained during ischemia and reperfusion with the face mask inhalation, as verified by samples taken from a femoral artery PE-50 catheter. Body temperature is maintained constant at 37° C. with a recirculating heating pad and K module with an intrarectal type T thermocouple. The PE-50 catheters are inserted into the femoral artery and vein following induction of anesthesia to obtain the blood gas, glucose and hemoglobin concentrations and to monitor blood pressure.
# The right common carotid artery, external carotid artery and internal carotid artery are isolated using microsurgical techniques. A clamp is applied to the common carotid artery and a 4-0 nylon suture with a rounded tip is inserted into the external carotid artery through a small puncture. The clamp on the common carotid artery is removed. The suture is passed distally into the internal carotid artery until it blocks the middle cerebral artery. Two hours after the MCA occlusion, the animal is again anesthetized, and the nylon suture is removed from the internal carotid artery.
# Infusion of the inhibitor or vehicle is done by intravenous infusion via the femoral vein.
# Syringe pumps were filled under sterile conditions with either isotonic saline/1% DMSO solution as the control or with the concentration of CP-1 or CP-2 indicated in the examples, hereinbelow. The pumps delivered the solution at a rate of 15 μl/min for up to 4 hours.
# (§1) After anesthesia had been induced in the rat, a catheter was inserted into the femoral vein and tunneled subcutaneously in the posterior neck region. Body temperature was maintained at a constant temperature of 37° C. during surgical procedures. The animals underwent 2 hours of MCA occlusion, and then reperfusion when the suture was withdrawn, and immediately thereafter, the drug was infused for four hours. The animals were killed after a 7-day reperfusion, and the brains were formalin fixed and sliced 6-μm thick into seven coronal sections A-G, and mounted on coated slides. After staining with hematoxylin and eosin, the stroke volume was measured using an image analysis program. The stroke area and the contralateral hemispheric area were calculated by tracing the areas on the computer screen, and the volumes were determined by multiplying the appropriate area by the section interval thickness. The stroke volume is expressed as the percentage of lesion size to the volume of contralateral hemisphere. Statistical analysis was performed using the independent t-test.
# CP-1 dissolved in 1% DMSO and isotonic saline was given intravenously to Wistar rats (15 μl/min) at concentrations of 2 μM, 10μM, 50μM and 25μM for 4 hours immediately after reperfusion following two hours of MCA occlusion, in accordance with the procedure described hereinabove. Control animals underwent a similar protocol but they had injected therein 1% DMSO/Saline as the vehicle within four hours. All animals which survived 7 days were sacrificed and the stroke volume calculated. The results are tabulated hereinbelow:
# The protocol described hereinabove was repeated with CP-2 used in lieu of CP-1, at doses of 10, 50, 250 and 500 μM.
# [2] = tested on: Wistar rats with MCA occlusion; assay: Neurological function on four point scale (Bederson) after 3 h MCA occlusion; type: in vivo, rat
# Description: CP-1 dissolved in 1% DMSO and isotonic saline was given intravenously to Wistar rats (15 μl/min) at a concentration of 50 μM for four hours beginning at the end of three hours of MCA occlusion, in accordance with the protocol described hereinabove. Control animals underwent a similar protocol, but they had injected therein a 1% DMSO/Saline as the vehicle for four hours beginning at the end of a three hour MCA occlusion. All animals which survived 7 days were sacrificed and the infarct volume was measured 7 days after the MCA occlusion.
# On the first day and on the seventh day after occlusion, the neurological function was determined on a four point scale (0, 1, 2, 3,) as described in an article by Bederson, et al. in Stroke, 1986, 17:472-476, the contents of which are incorporated by reference.
# The rats were placed on large sheet of soft, plastic coated paper (such as counter protection paper) which they could potentially firmly grip with their claws. The tail of the rats were held by hand, and gentle lateral pressure was applied behind the rat's shoulder until it was noticed that the forelimbs slid several inches. This maneuver was repeated several times in each direction. […] (These rats were severely dysfunctional).
# These values are the mean score ±SEM of the results from treatment on control animals. P≦0.05 according to the Mann Whitney Rank Sum test.
# [3] = tested on: Wistar rats with MCA occlusion; assay: Stroke model, 3 h MCA occlusion, infarct volume at 7 days; type: in vivo, rat
# Description: as §1, with “Statistical analysis was performed using the independent t-test.” left out
# CP-1 dissolved in 1% DMSO and isotonic saline was given intravenously to Wistar rats (15 μl/min) at a concentration of 50 μM for four hours beginning at the end of three hours of MCA occlusion, in accordance with the protocol described hereinabove. […] All animals which survived 7 days were sacrificed and the infarct volume was measured 7 days after the MCA occlusion. […]
# [4] = tested on: Calpain; assay: Calpain inactivation rate, fluorimetric progress curves; type: biochemical; details: second order inactivation rate constant corrected for substrate; substrate Suc-Leu-Tyr-AMC; pH 7.5, 37° C.
# Description: (“Tian, et al.”) the contents of which are incorporated by reference. More specifically, the value of kobs is given by the slope of a plot of ln [P]∞−[p]t versus t (time). The apparent second-order rate contact for inactivation, k2app was calculated as kobs/[I]. The inactivation-rates (kobs) in the presence of substrate and for different inhibitor concentrations for calpain, cathepsin B and cathepsin L are determined according to the method of Tian, et al. However, k2app is corrected for the presence of substrate (s) to give the second order rate constant k^12app, calculated as k^12app=k2app (1+[s]/Km).
# Calpain was assayed fluorimetrically in 1 ml of 50 mM Tris/acetate buffer, pH 7.5, containing 5 mM CaCl2, 2.5 mM DTT(dithiothreitol), 0.1% Triton X-100 at 37° C., using 2.5×10^−4 M Suc-Leu-Tyr-aminomethylcoumarin (AMC) (Novabiochem, Switzerland) as substrate and 50nM (final concentration) of enzyme. The appearance of the 7-amino-4 methylcoumarin product was recorded continuously with a Perkin Elmer 650-10S spectrofluorimeter, a SPEX Fluorolog 1680, or SLM 8000C fluorescence spectrometer with excitation at 370 nm and emission at 460 nm.
# Typically, 5 μL of the substrate solution (50 mM stock in DMSO) was added to 1 mL of buffer. Varying concentrations of the inhibitor solution (10 μL of a DMSO […] solution) were added, followed by 10 μL of calpain in the assay buffer. After allowing the reaction mixture to incubate for 2-5 min, during which time a steady baseline level of fluorescence was measured, calcium was added in a 10-μL volume to initiate hydrolysis of the fluorogenic substrate, and the resulting increase in fluorescence was monitored continuously. When inhibitors were tested at very low concentrations, the enzyme concentration was reduced to maintain a minimum of a 10-fold excess of inhibitor over enzyme.
smiles,measurement,setting,value
"[N-]=[N+]=CC(=O)C(COCc1ccccc1)NC(=O)C(Cc1ccccc1)NC(=O)OCc1ccccc1 (stereo not drawn) [CP-1, benzyloxycarbonyl-Phe-Ser(OBz)-CHN2] (Cbz-Phe-Ser(Bn)-CHN2; configuration not given here)",% Hemisphere Infarct Volume (% ± SEM),[1]; 2 μM i.v. 15 μl/min for 4 h after reperfusion,"39 ± 2.1, p > 0.1%"
same,% Hemisphere Infarct Volume (% ± SEM),[1]; 10 μM i.v. 15 μl/min for 4 h after reperfusion,"22 ± 4.7, p = 0.01%"
same,% Hemisphere Infarct Volume (% ± SEM),[1]; 50 μM i.v. 15 μl/min for 4 h after reperfusion,"20 ± 4.1, p = 0.003%"
same,% Hemisphere Infarct Volume (% ± SEM),[1]; 250 μM i.v. 15 μl/min for 4 h after reperfusion,"23 ± 5.2, p = 0.02%"
same,area of damage of the cerebral hemisphere,"[1]; all doses except 2 μM, reduced from 37% in control",about 20%
same,Functional Score Day 7,"[2]; 50 μM i.v. 4 h after 3 h MCA occlusion, scale 0-3, mean ± SEM, control 1.9 ± 0.3",0.9 ± 0.2
same,Functional Score Day 1,"[2]; 50 μM i.v. 4 h after 3 h MCA occlusion, scale 0-3, mean ± SEM, control 3 ± 0",2.1 ± 0.6
same,reducing the neurological deficits due to the occlusion,"[2]; 50 μM, 3 hour MCA occlusion",effective in reducing the neurological deficits
same,% Hemisphere Infact Volume (% ± SEM),"[3]; 50 μM i.v. for 4 h beginning at end of 3 h MCA occlusion, day 7, control 41.1 ± 2.4, P>0.05",39.9 ± 4.1%
same,reducing infarct size,"[3]; 50 μM, 3 hour MCA occlusion",not effective
same,Calpain k′2app,[4],<10 M^−1S^−1

# — patent US6458760B1, “Method for treating tissue damaged from ischemia” (Henry Ford Health System, priority 1998, dated 2002)
